# Results from US10889844B2, “Methods of degrading or hydrolyzing a polysaccharide” (Novozymes A/S, priority 2010, dated 2021).
# Entries after “also recorded” stand apart in the source; their conditions may differ.
# B1: TaGH61A: GH61 protein (SEQ ID NO: 2), GH61A from T. aurantiacus (protein)
# chain: MSFSKIIATAGVLASASLVAGHGFVQNIVIDGKKYYGGYLVNQYPYMSNPPEVIAWSTTATDLGFVDGTGYQTPDIICHRGAKPGALTAPVSPGGTVELQWTPWPDSHHGPVINYLAPCNGDCSTVDKTQLEFFKIAESGLINDDNPPGIWASDNLIAANNSWTVTIPTTIAPGNYVLRHEIIALHSAQNQDGAQNYPQCINLQVTGGGSDNPAGTLGTALYHDTDPGILINIYQKLSSYIIPGPPLYTG
# modifications: T. aurantiacus
# B2: TtGH61E: GH61 protein from Thielavia terrestris (SEQ ID NO: 1) (protein)
# chain: MLANGAIVFLAAALGVSGHYTWPRVNDGADWQQVRKADNWQDNGYVGDVTSPQIRCFQATPSPAPSVLNTTAGSTVTYWANPDVYHPGPVQFYMARVPDGEDINSWNGDGAVWFKVYEDHPTFGAQLTWPSTGKSSFAVPIPPCIKSGYYLLRAEQIGLHVAQSVGGAQFYISCAQLSVTGGGSTEPPNKVAFPGAYSATDPGILINIYYPVPTSYQNPGPAVFSCMLANGAIVFLAAALGVSGHYTWPRVNDGADWQQVRKADNWQDNGYVGDVTSPQIRCFQATPSPAPSVLNTTAGSTVTYWANPDVYHPGPVQFYMARVPDGEDINSWNGDGAVWFKVYEDHPTFGAQLTWPSTGKSSFAVPIPPCIKSGYYLLRAEQIGLHVAQSVGGAQFYISCAQLSVTGGGSTEPPNKVAFPGAYSATDPGILINIYYPVPTSYQNPGPAVFSC
# modifications: T. terrestris
# B3: EfCBM33: family 33 CBM from Enterococcus faecalis (Uniprot ID:Q838S1; SEQ ID NO: 5) (protein, listed as Enterococcus faecalis)
# chain: MKKSLLTIVLAFSFVLGGAALAPTVSEAHGYVASPGSRAFFGSSAGGNLNTNVGRAQWEPQSIEAPKNTFITGKLASAGVSGFEPLDEQTATRWHKTNITTGPLDITWNLTAQHRTASWDYYITKNGWNPNQPLDIKNFDKIASIDGKQEVPNKVVKQTINIPTDRKGYHVIYAVWGIGDTVNAFYQAIDVNIQ
# Assays:
# Type in all cases: biochemical
# [1] = test system: Cellic™ CTec2; assay: Effect of ascorbic acid on glucose release from cellulose by Cellic CTec2 (FIG. 35); settings: 0.5 mM ascorbic acid, 24 hours
# [2] = Time course of filter paper cellulose degradation by […] with CelS2 (FIG. 25); settings: 0.5 mM reduced glutathione
# Procedure: In reactions where no CelS2 was present, 40 μg/ml purified BSA was added in order to maintain an identical protein load. […] Data are mean+/−SD (N=3); error bars indicate SD.
# [3] = Filter paper degradation by HjCel7A with CelS2 over time (FIG. 26); settings: no CelS2 present
# Procedure: By far the major products of these reactions are cellooligosaccharides released by the cellulases (whose activity is boosted by CelS2). In the case of HjCel7A, the main product is cellobiose and formation of this product is shown. RG, indicates the presence of a reductant, in this case reduced glutathione. […] The reactions were run at 50° C.
# [4] = Filter paper cellulose degradation by […] with E7 (FIG. 28); settings: 2 mM reduced glutathione
# Procedure: 1 μM of the N-terminal CBM33 domain of CelS2 was incubated with 10 mg/ml AVICEL® in the presence of 0.8 mM of one of the reductants, or in the absence of any reductant. Reactions were run in 50 mM succinate buffer pH 5.5, 1 mM MgCl2, at 50° C. and 900 rpm (vertical agitation) for 20 hours. […] (glucose and cellobiose reported as [Glc]) released after incubation of 0.08 μl/ml […]™ (CC) in the presence or absence of 1 μM E7 and 2 mM reduced glutathione (RG) as external electron donor with 2 mg/ml filter paper cellulose. Reactions were incubated in 20 mM sodium acetate buffer pH 5.5, 1 mM MgCl2, at 50° C. and 900 rpm (horizontal agitation) for up to 50 hours.
# [5] = biological target: T1, CBP21 (Serratia marcescens, UniProt P9WEM3); assay: Reactions under metal chelating conditions: re-activation of metal-free CBP21
# Procedure: Solid lines indicate reactions with metal-free CBP21; dashed lines indicate reactions without CBP21. Half way through the reaction (indicated by the arrow) MgCl2 (final concentration 25 mM), ZnCl2 (25 mM) or buffer was added to one of two (parallel) reaction mixtures. Squares, MgCl2 added; circles, ZnCl2 added; triangles, buffer added.
# Divalent cations were removed by chelation through dialysis of a 10 mg/mL CBP21 solution in a buffer containing 20 mM Tris-HCl and 5 mM EDTA. The protein solution was present in a Slide-A-Lyzer cassette (Pierce) with 10 kDa MW cut-off dialysis membrane. […] For the re-activation experiment, the divalent cations were added to the appropriate reaction solutions immediately after the third sampling (90 minutes).
# [6] = test system: CBP21 (Serratia marcescens); settings: CBP21 alone on beta-chitin with reductant; 10 mM sodium dithionite anaerobic or 2.0 mM potassium cyanide
# [7] = biological target: T1, CBP21
# [8] = Cleavage of AVICEL by GH61 proteins in the presence of ascorbic acid (HPAEC, FIG. 34); settings: 140 μg/ml GH61 protein, 10 mg/ml AVICEL, 2.4 mM ascorbic acid, pH 6.6, 24 hours
# From the text: The two proteins were cloned and produced as described in Harris et al., 2010, supra. […] While the product pattern is similar to that obtained with CBM33s, it is not identical. The patterns typically obtained with CBM33s acting on cellulose in the presence of reductants (FIGS. 19, 22, 27, 30, and 31) show different peridiodicities (i.e., relative abundances of the various products, both oxidized and native oligosaccharides). This may indicate that TtGH61E acts on the substrate in a slightly different way, e.g., by attacking another face of the crystal. Clearly, however, the overall outcome of the reaction of TtGH61E in the presence of the reductant is similar to the outcome of reactions of CBM33s on cellulose in the presence of reductant.
# [9] = EfCBM33 (dissolved crystals) on beta-chitin, MALDI-TOF MS; settings: 2.0 mg/ml beta-chitin
# Procedure: (§1) For use in chitin degradation experiments, eight crystals were harvested from a 2 μL drop using a nylon loop and transferred to a 4 μL drop containing the crystallization liquor from the buffer reservoir. The crystals were mixed around in order to “rinse off” potential contaminants. After the first rinse, the crystals were transferred to a new 4 μL drop containing the crystallization liquor for a second rinsing cycle. Finally, all crystals were transferred to and dissolved in a 4 μL drop containing 20 mM Tris-HCl, pH 8.0. The resulting solution was diluted by adding it to a test tube containing 46 μL 20 mM Tris-HCl, pH 8.0. […] Soluble products in the supernatant of the reaction were analyzed by MALDI-TOF, using the same methods as those used for testing the activity of CBP21. Further, the ability of EfCBM33 to boost degradation of alpha-chitin was probed by conducting an experiment where 2.0 mg/ml alpha-chitin (shrimp shells) was incubated with 0.3 μM of the chitinase from Entreococcus feacalis (protein name (EF0361)) in the presence or absence of 0.3 μM EfCBM33 and 1.0 mM reductant (R: reduced glutathione) incubated at 37° C. with agitation at 900 rpm.
# [10] = EfCBM33 boost of alpha-chitin degradation by chitinase EF0361; settings: 2.0 mg/ml alpha-chitin, 0.3 μM EF0361, 0.3 μM EfCBM33, 1.0 mM reduced glutathione
# Procedure: as §1
# T1 sequence (P9WEM3 28-197): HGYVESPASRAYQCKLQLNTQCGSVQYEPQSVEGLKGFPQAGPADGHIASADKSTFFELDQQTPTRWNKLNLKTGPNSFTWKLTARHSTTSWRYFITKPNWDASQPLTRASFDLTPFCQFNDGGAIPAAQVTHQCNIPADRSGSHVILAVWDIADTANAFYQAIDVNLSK
# CBP21 (Serratia marcescens), sequence (P9WEM3 28-197): as above
molecule,measurement,setting,value
O=C1O[C@H]([C@@H](O)CO)C(O)=C1O [ascorbic acid],increase of the release of glucose,[1]; AVICEL®,about 30%
same,increase of the release of glucose,[1]; Filter Paper,about 30%
"N[C@@H](CCC(=O)N[C@@H](CS)C(=O)NCC(=O)O)C(=O)O [reduced glutathione, reference compound]",effect of reductant in reactions with only CC,[2],no effect in reactions with only CC
same,effect of reductant on Cel7A alone,[3],essentially identical
same,effect of reductant in reactions with only CC,[4],no effect in reactions with only CC
[Cl-].[Cl-].[Zn+2] [ZnCl2],re-activation of metal-free CBP21,[5],Re-activation of metal-free CBP21 was achieved
"O=S([O-])S(=O)[O-].[Na+].[Na+] [sodium dithionite, Sodium dithionite]",effect on CBP21 generated oxidized products,[6],no detectable amounts of CBP21 generated products
same,effect on the potentiating effect of CBP21 on ChiC,[7],abolished
[Cl-].[Cl-].[Mg+2] [MgCl2],re-activation of metal-free CBP21,[5],Re-activation of metal-free CBP21 was achieved
B1,"cleavage of cellulose, oxidized products",[8],much less active than TtGH61E
B2,"cleavage of cellulose, oxidized products",[8],cuts cellulose producing oxidized and native celluoligosaccharides
B3,oxidohydrolytic activity on beta-chitin (soluble products),[9],clearly showing the formation of oxidized products; also recorded: the product spectrum is dominated by even-numbered oxidized chitooligosaccharides
same,boost of chitinase activity on alpha-chitin,[10],A boost of the chitinase activity is clearly observed
